pIC50: −log10 of the molar value.
Target: Presenilin-1 (Homo sapiens, UniProt P49768)
Experiment: Inhibition of gamma secretase (unknown origin)

pIC50: 7.96
Structure (SMILES): CC(C)[C@H](O)C(=O)N[C@@H](C)C(=O)NC1C(=O)N(C)CCc2ccccc21 (stereo partly drawn) [(2S)-2-hydroxy-3-methyl-N-[(1S)-1-{[(1S)-3-methyl-2-oxo-2,3,4,5-tetrahydro-1H-3-benzazepin-1-yl]carbamoyl}ethyl]butanamide]
